pIC50: −log10 of the molar value.
Experiments:
CYP2C19 = target: T1, CYP2C19 (Homo sapiens, UniProt P33261); test: CYP inhibition in human liver microsomes, CYP2C19; format: in vitro ADME; conditions: probe omeprazole, substrate omeprazole, read-out: CYP2C19 Inh %
T1 construct: incubated with human liver microsomes; tissue Eurofins ITEMG232; host or cells: human liver microsomes
Method: (§1) The following substrates were used: CYP1A phenacetin, CYP2B6 bupropion, CYP2C8 paclitaxel and amodiaquine, CYP2C9 diclofenac, CYP2C19 omeprazole, CYP2D6 dextromethorphan, CYP3A midazolam and testosterone. At the end of the incubation, the formation of metabolite was monitored by HPLC-MS/MS as the peak area response.

CYP3A4 = CYP3A4 (Homo sapiens, UniProt P08684); test: CYP inhibition in human liver microsomes, CYP3A4 (midazolam); format: in vitro ADME; parameters: incubated with human liver microsomes; tissue Eurofins ITEMG232; host or cells: human liver microsomes; conditions: probe midazolam, substrate midazolam, read-out: CYP3A4 midazolam Inh %
Sequence of CYP3A4 (P08684 whole entry): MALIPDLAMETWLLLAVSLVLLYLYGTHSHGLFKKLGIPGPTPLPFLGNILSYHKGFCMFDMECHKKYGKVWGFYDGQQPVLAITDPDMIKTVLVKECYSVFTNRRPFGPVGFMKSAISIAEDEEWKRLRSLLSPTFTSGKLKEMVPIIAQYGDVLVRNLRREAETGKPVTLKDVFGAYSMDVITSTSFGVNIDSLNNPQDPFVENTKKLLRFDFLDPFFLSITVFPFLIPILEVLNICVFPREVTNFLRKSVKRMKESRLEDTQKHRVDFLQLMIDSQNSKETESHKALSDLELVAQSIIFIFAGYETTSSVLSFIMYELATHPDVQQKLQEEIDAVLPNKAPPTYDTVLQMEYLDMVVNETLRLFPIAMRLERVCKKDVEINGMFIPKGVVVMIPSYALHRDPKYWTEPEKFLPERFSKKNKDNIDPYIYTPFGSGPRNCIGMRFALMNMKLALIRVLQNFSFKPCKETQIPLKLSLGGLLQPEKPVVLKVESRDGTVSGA
Method: as §1

[1] = target: T2, human recombinant AT1 receptor (Homo sapiens, UniProt P30556); test: Binding to AT1 receptor, radiometric scintillation assay (Eurofins); conditions: ligand 125I(sar1,Ile8)-AT-II, tested at 1 and 10 μM
T2 construct: purchased Eurofins ITEM24
T2 sequence (P30556 1-359): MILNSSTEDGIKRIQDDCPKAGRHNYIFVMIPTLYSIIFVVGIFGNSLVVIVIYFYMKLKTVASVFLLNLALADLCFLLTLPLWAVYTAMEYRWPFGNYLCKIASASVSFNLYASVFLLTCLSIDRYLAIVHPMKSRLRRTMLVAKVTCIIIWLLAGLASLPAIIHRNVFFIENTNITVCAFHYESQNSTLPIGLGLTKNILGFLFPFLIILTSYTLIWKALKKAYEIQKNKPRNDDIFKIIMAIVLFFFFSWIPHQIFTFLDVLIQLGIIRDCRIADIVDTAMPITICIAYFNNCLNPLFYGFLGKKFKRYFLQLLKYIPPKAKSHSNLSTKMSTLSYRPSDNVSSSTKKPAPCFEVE
Method: (§2) Compounds were evaluated for binding to the human recombinant AT2 and AT1 receptor according to Eurofins protocol ITEM26 and ITEM24 using a radiometric scintillation assay.

CYP1A = target: T3, CYP1A (Homo sapiens, UniProt P05177); test: CYP inhibition in human liver microsomes, CYP1A; format: in vitro ADME; conditions: probe phenacetin, substrate phenacetin, read-out: CYP1A Inh %
T3 construct: incubated with human liver microsomes; tissue Eurofins ITEMG232; host or cells: human liver microsomes
T3 sequence (P05177 1-516): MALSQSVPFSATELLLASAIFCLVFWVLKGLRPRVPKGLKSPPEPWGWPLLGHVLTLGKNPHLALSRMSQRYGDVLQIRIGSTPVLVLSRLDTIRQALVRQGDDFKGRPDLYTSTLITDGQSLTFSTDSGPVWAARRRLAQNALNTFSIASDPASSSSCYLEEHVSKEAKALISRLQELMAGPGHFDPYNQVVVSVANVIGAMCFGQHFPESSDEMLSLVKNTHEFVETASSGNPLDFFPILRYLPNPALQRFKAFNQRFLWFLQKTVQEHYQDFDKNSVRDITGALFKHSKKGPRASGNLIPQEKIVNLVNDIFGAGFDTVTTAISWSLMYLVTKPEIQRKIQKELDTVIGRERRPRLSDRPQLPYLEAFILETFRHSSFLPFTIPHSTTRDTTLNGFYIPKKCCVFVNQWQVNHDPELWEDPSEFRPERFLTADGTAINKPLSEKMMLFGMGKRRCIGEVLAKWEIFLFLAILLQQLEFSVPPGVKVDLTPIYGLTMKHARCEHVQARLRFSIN
Method: as §1

CYP2D6 = target: T4, CYP2D6 (Homo sapiens, UniProt P10635); test: CYP inhibition in human liver microsomes, CYP2D6; format: in vitro ADME; conditions: probe dextromethorphan, substrate dextromethorphan, read-out: CYP2D6 Inh %
T4 construct: incubated with human liver microsomes; tissue Eurofins ITEMG232; host or cells: human liver microsomes
T4 sequence (P10635 whole entry): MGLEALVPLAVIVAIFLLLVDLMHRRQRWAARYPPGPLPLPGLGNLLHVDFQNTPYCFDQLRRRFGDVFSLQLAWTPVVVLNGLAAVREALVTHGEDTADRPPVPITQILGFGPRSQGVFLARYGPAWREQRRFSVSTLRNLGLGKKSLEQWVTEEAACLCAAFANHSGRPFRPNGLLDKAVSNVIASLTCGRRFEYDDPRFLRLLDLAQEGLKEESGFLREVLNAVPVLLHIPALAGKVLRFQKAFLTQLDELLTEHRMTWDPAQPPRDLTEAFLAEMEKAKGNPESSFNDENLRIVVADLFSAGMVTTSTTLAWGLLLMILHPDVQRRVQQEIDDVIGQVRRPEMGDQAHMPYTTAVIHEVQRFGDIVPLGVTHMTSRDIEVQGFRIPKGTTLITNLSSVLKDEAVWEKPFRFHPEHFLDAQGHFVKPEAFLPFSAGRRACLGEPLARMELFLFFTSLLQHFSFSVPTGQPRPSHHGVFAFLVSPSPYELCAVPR
Method: as §1

CYP2C8 = target: T5, CYP2C8 (Homo sapiens, UniProt P10632); test: CYP inhibition in human liver microsomes, CYP2C8; format: in vitro ADME; conditions: probe paclitaxel and amodiaquine, substrate paclitaxel and amodiaquine, read-out: CYP2C8 Inh %
T5 construct: incubated with human liver microsomes; tissue Eurofins ITEMG232; host or cells: human liver microsomes
T5 sequence (P10632 1-490): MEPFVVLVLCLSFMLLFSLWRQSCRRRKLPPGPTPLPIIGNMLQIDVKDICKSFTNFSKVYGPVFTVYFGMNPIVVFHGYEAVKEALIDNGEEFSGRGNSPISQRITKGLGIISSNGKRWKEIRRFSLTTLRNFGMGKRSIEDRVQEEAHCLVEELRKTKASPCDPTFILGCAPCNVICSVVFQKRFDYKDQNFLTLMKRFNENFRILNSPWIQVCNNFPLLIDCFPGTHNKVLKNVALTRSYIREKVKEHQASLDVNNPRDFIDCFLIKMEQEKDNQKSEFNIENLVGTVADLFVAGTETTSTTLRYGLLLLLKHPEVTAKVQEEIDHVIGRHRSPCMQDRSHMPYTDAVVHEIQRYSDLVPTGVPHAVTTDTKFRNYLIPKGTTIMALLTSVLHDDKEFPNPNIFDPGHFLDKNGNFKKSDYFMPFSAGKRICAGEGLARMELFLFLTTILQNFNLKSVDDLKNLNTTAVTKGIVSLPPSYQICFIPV
Method: as §1

[2] = target: T6, human recombinant AT2 receptor (Homo sapiens, UniProt P50052); test: Binding to AT2 receptor, radiometric scintillation assay (Eurofins); conditions: ligand 125I CGP 42112A, tested at 1, 10, 100 and 1000 nM
T6 construct: purchased Eurofins ITEM26
T6 sequence (P50052 1-363): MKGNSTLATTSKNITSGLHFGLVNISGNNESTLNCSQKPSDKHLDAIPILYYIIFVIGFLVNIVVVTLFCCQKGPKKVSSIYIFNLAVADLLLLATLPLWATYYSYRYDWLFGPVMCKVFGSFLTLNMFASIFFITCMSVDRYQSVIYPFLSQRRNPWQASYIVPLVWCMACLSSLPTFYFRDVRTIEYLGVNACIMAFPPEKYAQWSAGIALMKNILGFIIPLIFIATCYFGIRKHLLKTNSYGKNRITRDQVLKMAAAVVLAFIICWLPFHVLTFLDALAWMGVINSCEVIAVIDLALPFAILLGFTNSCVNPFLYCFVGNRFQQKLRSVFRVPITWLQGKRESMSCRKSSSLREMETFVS
Method: as §2

CYP2C9 = CYP2C9 (Homo sapiens, UniProt P11712); test: CYP inhibition in human liver microsomes, CYP2C9; format: in vitro ADME; parameters: incubated with human liver microsomes; tissue Eurofins ITEMG232; host or cells: human liver microsomes; conditions: probe diclofenac, substrate diclofenac, read-out: CYP2C9 Inh %
Sequence of CYP2C9 (P11712 whole entry): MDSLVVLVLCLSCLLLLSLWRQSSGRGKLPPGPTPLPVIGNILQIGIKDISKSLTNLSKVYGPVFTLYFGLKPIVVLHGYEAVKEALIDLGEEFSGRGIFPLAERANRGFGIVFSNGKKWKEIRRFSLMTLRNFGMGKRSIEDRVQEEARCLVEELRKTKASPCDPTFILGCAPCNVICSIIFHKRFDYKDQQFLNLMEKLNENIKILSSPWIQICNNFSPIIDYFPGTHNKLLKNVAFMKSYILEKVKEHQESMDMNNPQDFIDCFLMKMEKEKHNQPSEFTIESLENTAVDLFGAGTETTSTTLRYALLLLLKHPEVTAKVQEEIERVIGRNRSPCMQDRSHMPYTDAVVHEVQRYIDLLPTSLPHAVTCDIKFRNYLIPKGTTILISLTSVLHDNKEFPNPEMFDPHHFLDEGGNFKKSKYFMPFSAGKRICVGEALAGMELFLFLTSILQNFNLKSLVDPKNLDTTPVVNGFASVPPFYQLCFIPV
Method: as §1

T1 sequence (P33261 whole entry): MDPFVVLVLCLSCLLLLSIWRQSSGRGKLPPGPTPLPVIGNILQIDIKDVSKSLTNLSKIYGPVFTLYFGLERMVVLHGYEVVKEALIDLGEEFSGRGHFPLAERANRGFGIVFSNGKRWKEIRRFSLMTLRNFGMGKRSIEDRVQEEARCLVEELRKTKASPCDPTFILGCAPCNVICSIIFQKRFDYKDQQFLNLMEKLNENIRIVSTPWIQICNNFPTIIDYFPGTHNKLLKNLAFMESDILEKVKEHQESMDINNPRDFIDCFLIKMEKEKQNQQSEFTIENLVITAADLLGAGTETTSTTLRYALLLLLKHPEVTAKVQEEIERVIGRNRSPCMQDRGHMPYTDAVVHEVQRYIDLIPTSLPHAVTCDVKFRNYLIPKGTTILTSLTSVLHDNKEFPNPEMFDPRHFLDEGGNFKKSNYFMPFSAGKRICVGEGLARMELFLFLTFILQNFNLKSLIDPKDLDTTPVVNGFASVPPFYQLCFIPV

SMILES	inhibition at 10 µM (CYP2C19) [%]	inhibition at 10 µM (CYP3A4) [%]	pIC50 [1]	inhibition at 10 µM (CYP1A) [%]	inhibition at 10 µM (CYP2D6) [%]	inhibition at 10 µM (CYP2C8) [%]	pIC50 [2]	inhibition at 10 µM (CYP2C9) [%]
Cc1nccn1Cc1ccc(-c2cc(CC(C)C)sc2S(=O)(=O)NC(=O)NCc2nccn2C)cc1F [Example 15, 1-(3-{3-Fluoro-4-[(2-methyl-1H-imidazol-1-yl)methyl]phenyl}-5-isobutyl-2-thienylsulfonyl)-3-[(1-methyl-1H-imidazol-2-yl)methyl]urea]	73	38	3.33	20	53	48	8.31	30
CCCNC(=O)NS(=O)(=O)c1sc(CC(C)C)cc1-c1ccc(Cn2ccnc2CC)c(F)c1.O=C(O)C(F)(F)F [Example 33, 1-[(3-{4-[(2-ethyl-1H-imidazol-1-yl)methyl]-3-fluorophenyl}-5-(2-methylpropyl)thiophen-2-yl)sulfonyl]-3-propylurea trifluoroacetic acid]	26	-37	4.72	14	18	69	8.29	34
Cc1nccn1Cc1ccc(-c2cc(CC(C)C)sc2S(=O)(=O)NC(=O)NCCC(F)(F)F)cc1F [Example 14, 3-(3-{3-Fluoro-4-[(2-methyl-1H-imidazol-1-yl)methyl]phenyl}-5-isobutyl-2-thienylsulfonyl)-1-(3,3,3-trifluoropropyl)urea]	62	30	4.60	13	30	78	8.48	65
Cc1nccn1Cc1ccc(-c2cc(CC(C)C)sc2S(=O)(=O)NC(=O)NCc2ccc(F)c(F)c2)cc1F.O=C(O)C(F)(F)F [Example 34, 1-[(3,4-difluorophenyl)methyl]-3-[(3-{3-fluoro-4-[(2-methyl-1H-imidazol-1-yl)methyl]phenyl}-5-(2-methylpropyl)thiophen-2-yl)sulfonyl]urea trifluoroacetic acid]	80	74	4.68	-6	40	64	8.28	75
CCc1nccn1Cc1ccc(-c2cc(CC(C)C)sc2S(=O)(=O)NC(=O)NCc2ccccc2)cc1 [Example 6, 1-Benzyl-3-(3-{p-[(2-ethyl-1H-imidazol-1-yl)methyl]phenyl}-5-isobutyl-2-thienylsulfonyl)-urea]	57	28.5	< 6.00	6.8	27.3	76.2	8.46	51.4
Cc1nccn1Cc1ccc(-c2cc(CC(C)C)sc2S(=O)(=O)NC(=O)NCc2ccccn2)cc1 [Example 2, 3-(5-isobutyl-3-{p-[(2-Methyl-1H-imidazol-1-yl)methyl]phenyl}-2-thienylsulfonyl)-1-[(2-pyridyl)methyl]urea]	35.4	22.1	< 5.00	5	8.6	52.8	8.26	30.4
Cc1nccn1Cc1ccc(-c2cc(CC(C)C)sc2S(=O)(=O)NC(=O)NC(C)c2ccccn2)cc1F (centres unmarked) [Example 25, 3-(3-{3-Fluoro-4-[(2-methyl-1H-imidazol-1-yl)methyl]phenyl}-5-isobutyl-2-thienylsulfonyl)-1-[1-(2-pyridyl)ethyl]urea]	56	16	4.52	8	16	56	8.60	50

Reference: US12435072B2, “Compounds” (Vicore Pharma AB, priority 2019, dated 2025)
